The values below come from US20240228535A1 (priority 2022, published 2024).

This assay addresses SARS2 coronavirus 3CL protease (Severe acute respiratory syndrome coronavirus 2, UniProt P0DTD1). Briefly: biochemical. Particulars: 5 nM enzyme, 30 min pre-incubation with compound, 15 μM peptide substrate, 4 h at room temperature; read-out: FRET Potency (nM); IC50 values in the SARS2 3CLPro FRET assay.
With `CNC(=O)C(=O)[C@H](C[C@@H]1C[C@@H](C)NC1=O)NC(=O)c1cc(Cl)ccc1NC(=O)C(C)C(F)(F)F` (stereo partly drawn) [Example 24, 5-chloro-N-[(1S)-3-(methylamino)-1-[[(3S,5R)-5-methyl-2-oxo-pyrrolidin-3-yl]methyl]-2,3-dioxo-propyl]-2-[(3,3,3-trifluoro-2-methyl-propanoyl)amino]benzamide], the IC50 was found to be 18.6 nM.

Regarding `CNC(=O)C(=O)[C@H](C[C@@H]1C[C@@H](C)NC1=O)NC(=O)c1cc(Cl)ccc1NC(=O)OC1CC(F)(F)C1` [Example 188, (3,3-difluorocyclobutyl) N-[4-chloro-2-[(1S)-3-(methylamino)-1-[[(3S,5R)-5-methyl-2-oxo-pyrrolidin-3-yl]methyl]-2,3-dioxo-propyl]carbamoyl]phenyl] carbamate], the IC50 was found to be 7.2 nM.

Consider `CNC(=O)C(=O)[C@H](C[C@@H]1C[C@@H](C)NC1=O)NC(=O)c1cc(Cl)ccc1NC(=O)OCC1CC1(F)F` (stereo partly drawn) [Example 186, (2,2-difluorocyclopropyl)methyl N-[4-chloro-2-[[(1S)-3-(methylamino)-1-[[(3S,5R)-5-methyl-2-oxo-pyrrolidin-3-yl]methyl]-2,3-dioxo-propyl]carbamoyl]phenyl] carbamate], for which the IC50 stood at 2.5 nM.

For the compound `CNC(=O)C(=O)[C@H](C[C@@H]1C[C@@H](C)NC1=O)NC(=O)c1cc(Cl)c(F)cc1NC(=O)c1ccc(C(F)(F)F)nc1` [Example 223, N-[4-chloro-5-fluoro-2-[[(1S)-3-(methylamino)-1-[[(3S,5R)-5-methyl-2-oxo-pyrrolidin-3-yl]methyl]-2,3-dioxo-propyl]carbamoyl]phenyl]-6-(trifluoromethyl)pyridine-3-carboxamide], the IC50 is 9 nM.

As for `C[C@@H]1C[C@@H](C[C@H](NC(=O)c2cc(Cl)ccc2NC(=O)[C@H]2CN(C)C(=O)O2)C(=O)C(=O)NC2CC2)C(=O)N1` [Example 205], the IC50 stood at 6.6 nM.

For `C[C@@H]1C[C@@H](C[C@H](NC(=O)c2cc(Cl)c(F)cc2NC(=O)C2(C(F)(F)F)CC2)C(=O)C(=O)NC2CC2)C(=O)N1` [Example 33, 5-chloro-N-[(1S)-3-(cyclopropylamino)-1-[[(3S,5R)-5-methyl-2-oxo-pyrrolidin-3-yl]methyl]-2,3-dioxo-propyl]-4-fluoro-2-[[1-(trifluoromethyl)cyclopropane-carbonyl]amino]benzamide], the IC50 was found to be 12.2 nM.

Regarding `O=C(Nc1ccc(Cl)cc1C(=O)N[C@@H](C[C@@H]1CCNC1=O)C(=O)C(=O)NC1CC1)OCC(F)(F)F` [Example 191, 2,2,2-trifluoroethyl N-[4-chloro-2-[[(1S)-3-(cyclopropylamino)-2,3-dioxo-1-[[(3S)-2-oxopyrrolidin-3-yl]methyl]propyl]carbamoyl]phenyl]carbamate], the IC50 was found to be 16.1 nM.

As for `CNC(=O)C(=O)[C@H](C[C@@H]1CCNC1=O)NC(=O)c1cc(Cl)ccc1NC(=O)C12CC(F)(C1)C2` [Example 47], the IC50 was 8.8 nM.

`C[C@@H]1C[C@@H](C[C@H](NC(=O)c2cc(Cl)ccc2NC(=O)N(C)C)C(=O)C(=O)NC2CC2)C(=O)N1` [Example 148, 5-chloro-N-[(1S)-3-(cyclopropylamino)-1-[[(3S,5R)-5-methyl-2-oxo-pyrrolidin-3-yl]methyl]-2,3-dioxo-propyl]-2-(dimethylcarbamoylamino) benzamide]: the IC50 amounted to 24.7 nM.

Take `CNC(=O)C(=O)[C@H](C[C@@H]1C[C@@H](C)NC1=O)NC(=O)c1cc(Cl)ccc1NC(=O)C1CC1(F)F` (single isomer, unassigned) [Example 60]: the IC50 was 7.9 nM.

As to `C[C@@H]1C[C@@H](C[C@H](NC(=O)c2cc(C(F)F)ccc2NC(=O)C2(C(F)(F)F)CC2)C(=O)C(=O)NC2CC2)C(=O)N1` [Example 220, N-[(1S)-3-(cyclopropylamino)-1-[[(3S,5R)-5-methyl-2-oxo-pyrrolidin-3-yl]methyl]-2,3-dioxo-propyl]-5-(difluoromethyl)-2-[[1-(trifluoromethyl)cyclopropane-carbonyl]amino]benzamide], the IC50 is 60.3 nM.

Turning to `CC(C)OC(=O)Nc1ccc(Cl)cc1C(=O)N[C@@H](C[C@@H]1C[C@@H](C)NC1=O)C(=O)C(=O)NC1CC1` [Example 6, isopropyl (4-chloro-2-(((S)-4-(cyclopropylamino)-1-((3S,5R)-5-methyl-2-oxopyrrolidin-3-yl)-3,4-dioxobutan-2-yl)carbamoyl)phenyl)carbamate], the IC50 was determined as 4.8 nM.

Take `CNC(=O)C(=O)[C@H](C[C@@H]1C[C@@H](C)NC1=O)NC(=O)c1cc(Cl)cc(F)c1NC(=O)c1ccnc(C(F)(F)F)c1` [Example 224, N-[4-chloro-2-fluoro-6-[[(1S)-3-(methylamino)-1-[[(3S,5R)-5-methyl-2-oxo-pyrrolidin-3-yl]methyl]-2,3-dioxo-propyl]carbamoyl]phenyl]-2-(trifluoromethyl)pyridine-4-carboxamide]: the IC50 was determined as 7.2 nM.

Take `CNC(=O)C(=O)[C@H](C[C@@H]1C[C@@H](C)NC1=O)NC(=O)c1cc(Cl)ccc1NC(=O)OC1CC1` [Example 10, cyclopropyl (4-chloro-2-(((S)-1-((3S,5R)-5-methyl-2-oxopyrrolidin-3-yl)-4-(methylamino)-3,4-dioxobutan-2-yl)carbamoyl)phenyl)carbamate]: the IC50 was determined as 3.9 nM.

On to `CNC(=O)C(=O)[C@H](C[C@@H]1C[C@@H](C)NC1=O)NC(=O)c1cc(Cl)ccc1NC(=O)OC1CC1(F)F` (stereo partly drawn) [Example 171, (2,2-difluorocyclopropyl) N-[4-chloro-2-[(1S)-3-(methylamino)-1-[[(3S,5R)-5-methyl-2-oxo-pyrrolidin-3-yl]methyl]-2,3-dioxo-propyl]carbamoyl]phenyl] carbamate], for which the IC50 amounted to 3.2 nM.

`C[C@@H]1C[C@@H](C[C@H](NC(=O)c2cc(C(F)F)ccc2NC(=O)c2ccnc(C(F)(F)F)c2)C(=O)C(=O)NC2CC2)C(=O)N1` [Example 232, N-[2-[[(1S)-3-(cyclopropylamino)-1-[[(3S,5R)-5-methyl-2-oxo-pyrrolidin-3-yl]methyl]-2,3-dioxo-propyl]carbamoyl]-4-(difluoromethyl)phenyl]-2-(trifluoromethyl)pyridine-4-carboxamide]: the IC50 turned out to be 10.4 nM.

In the case of `CNC(=O)C(=O)[C@H](C[C@@H]1C[C@@H](C)NC1=O)NC(=O)c1cc(Cl)ccc1NC(=O)c1cccc(C(F)(F)F)n1` [Example 26, N-[4-chloro-2-[[(1S)-3-(methylamino)-1-[[(3S,5R)-5-methyl-2-oxo-pyrrolidin-3-yl]methyl]-2,3-dioxo-propyl]carbamoyl]phenyl]-6-(trifluoromethyl)pyridine-2-carboxamide], the IC50 was 17.4 nM.

Take `C[C@@H]1C[C@@H](C[C@H](NC(=O)c2cc(Cl)ccc2NC(=O)c2cc(C(F)(F)F)ccn2)C(=O)C(=O)NC2CC2)C(=O)N1` [Example 86, N-[4-chloro-2-[[(1S)-3-(cyclopropylamino)-1-[[(3S,5R)-5-methyl-2-oxo-pyrrolidin-3-yl]methyl]-2,3-dioxo-propyl]carbamoyl]phenyl]-4-(trifluoromethyl)pyridine-2-carboxamide]: the IC50 was 6.8 nM.

`C[C@@H]1C[C@@H](C[C@H](NC(=O)c2cc(Cl)ccc2NC(=O)c2ccn(CC(F)(F)F)n2)C(=O)C(=O)NC2CC2)C(=O)N1` [Example 100, N-[4-chloro-2-[[(1S)-3-(cyclopropylamino)-1-[[(3S,5R)-5-methyl-2-oxo-pyrrolidin-3-yl]methyl]-2,3-dioxo-propyl]carbamoyl]phenyl]-1-(2,2,2-trifluoroethyl)pyrazole-3-carboxamide]: the IC50 came to 5.9 nM.

On to `CNC(=O)C(=O)[C@H](C[C@@H]1CCNC1=O)NC(=O)c1cc(Cl)ccc1NC(=O)C1(C(F)(F)F)CC1` [Example 81, 5-chloro-N-[(1S)-3-(methylamino)-2,3-dioxo-1-[[(3S)-2-oxopyrrolidin-3-yl]methyl]propyl]-2-[[1-(trifluoromethyl)cyclopropane-carbonyl]amino]benzamide], for which the IC50 was determined as 15.9 nM.

In the case of `C[C@@H]1C[C@@H](C[C@H](NC(=O)c2cc(Cl)ccc2NC(=O)N(C)CC2CCC(F)(F)CC2)C(=O)C(=O)NC2CC2)C(=O)N1` [Example 105, 5-chloro-N—((S)-4-(cyclopropylamino)-1-((3S,5R)-5-methyl-2-oxopyrrolidin-3-yl)-3,4-dioxobutan-2-yl)-2-(3-((4,4-difluorocyclohexyl)methyl)-3-methylureido)benzamide], the IC50 is 10.9 nM.

Regarding `O=C(CCC(F)(F)F)Nc1ccc(Cl)cc1C(=O)N[C@@H](C[C@@H]1C[C@@H](C(F)(F)F)NC1=O)C(=O)C(=O)NC1CC1` [Example 68, 5-chloro-N-[(1S)-3-(cyclopropylamino)-2,3-dioxo-1-[[(3R,5S)-2-oxo-5-(trifluoromethyl)pyrrolidin-3-yl]methyl]propyl]-2-(4,4,4-trifluorobutanoylamino) benzamide], the IC50 amounted to 7 nM.

Take `O=C(CC(F)(F)F)Nc1ccc(Cl)cc1C(=O)N[C@@H](C[C@@H]1CCNC1=O)C(=O)C(=O)NC1CC1` [Example 38, 5-chloro-N-[(1S)-3-(cyclopropylamino)-2,3-dioxo-1-[[(3S)-2-oxopyrrolidin-3-yl]methyl]propyl]-2-(3,3,3-trifluoropropanoylamino) benzamide]: the IC50 is 10.5 nM.

`CNC(=O)C(=O)[C@H](C[C@@H]1C[C@@H](C)NC1=O)NC(=O)c1cc(Cl)ccc1NC(=O)C1CN(C)C1` [Example 149, N-[4-chloro-2-[[(1S)-3-(methylamino)-1-[[(3S,5R)-5-methyl-2-oxo-pyrrolidin-3-yl]methyl]-2,3-dioxo-propyl]carbamoyl]phenyl]-1-methyl-azetidine-3-carboxamide]: the IC50 came to 10.8 nM.

For `O=C(Nc1cc(F)c(F)cc1C(=O)N[C@@H](C[C@@H]1CCNC1=O)C(=O)C(=O)NC1CC1)OC1CC1` [Example 150], the IC50 was found to be 17.9 nM.

`C[C@@H]1C[C@@H](C[C@H](NC(=O)c2cc(Cl)ccc2NC(=O)[C@H](C)CC(F)(F)F)C(=O)C(=O)NC2CC2)C(=O)N1` [Example 209, 5-chloro-N-[(1S)-3-(cyclopropylamino)-1-[[(3S,5R)-5-methyl-2-oxo-pyrrolidin-3-yl]methyl]-2,3-dioxo-propyl]-2-[[(2R)-4,4,4-trifluoro-2-methyl-butanoyl]amino]benzamide]: the IC50 stood at 9.8 nM.
